In patent publication US7138361B2, “Herbicidal heterocycles” (E. I. du Pont de Nemours and Company, priority 2000, dated 2006):

Key:
Type in all cases: in vivo
[1] = tested on: Surinam grass (Brachiaria decumbens); assay: Test B postemergence
Summary of the method: (§1)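 Visual injury scores, 0 = no effect to 100 = complete control, assigned against controls after 13 to 15 days in the greenhouse. Compounds formulated in non-phytotoxic solvent plus surfactant and applied to soil after planting (pre) or onto foliage of 1- to 4-leaf plants (post).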

[2] = tested on: barnyardgrass (Echinochloa crus-galli); assay: Test B postemergence
Summary of the method: as §1

[3] = tested on: blackgrass (Alopecurus myosuroides); assay: Test B postemergence
Summary of the method: as §1

[4] = tested on: cocklebur (Xanthium strumarium); assay: Test B postemergence
Summary of the method: as §1

[5] = tested on: corn (Zea mays); assay: Test B postemergence
Summary of the method: as §1

[6] = tested on: crabgrass (Digitaria sanguinalis); assay: Test B postemergence; details: Rate 125 g/ha, scale 0 to 100, 0 no effect, 100 complete control
Summary of the method: as §1

[7] = tested on: giant foxtail (Setaria faberii); assay: Test B postemergence; details: Rate 125 g/ha, scale 0 to 100, 0 no effect, 100 complete control
Summary of the method: as §1

[8] = tested on: lambsquarters (Chenopodium album); assay: Test B postemergence; details: Rate 125 g/ha, scale 0 to 100, 0 no effect, 100 complete control
Summary of the method: as §1

[9] = tested on: morning glory (Ipomoea hederacea); assay: Test B postemergence; details: Rate 125 g/ha, scale 0 to 100, 0 no effect, 100 complete control
Summary of the method: as §1

[10] = tested on: pigweed (Amaranthus retroflexus); assay: Test B postemergence; details: Rate 125 g/ha, scale 0 to 100, 0 no effect, 100 complete control
Summary of the method: as §1

[11] = tested on: velvetleaf (Abutilon theophrasti); assay: Test B postemergence; details: Rate 125 g/ha, scale 0 to 100, 0 no effect, 100 complete control
Summary of the method: as §1

[12] = tested on: wheat (Triticum aestivum); assay: Test B postemergence; details: Rate 125 g/ha, scale 0 to 100, 0 no effect, 100 complete control
Summary of the method: as §1

[13] = tested on: wild oat (Avena fatua); assay: Test B postemergence; details: Rate 125 g/ha, scale 0 to 100, 0 no effect, 100 complete control
Summary of the method: as §1

[14] = tested on: Surinam grass (Brachiaria decumbens); assay: Test B preemergence
Summary of the method: as §1

[15] = tested on: barnyardgrass (Echinochloa crus-galli); assay: Test B preemergence
Summary of the method: as §1

[16] = tested on: cocklebur (Xanthium strumarium); assay: Test B preemergence
Summary of the method: as §1

[17] = tested on: corn (Zea mays); assay: Test B preemergence
Summary of the method: as §1

[18] = tested on: crabgrass (Digitaria sanguinalis); assay: Test B preemergence
Summary of the method: as §1

[19] = tested on: giant foxtail (Setaria faberii); assay: Test B preemergence
Summary of the method: as §1

[20] = tested on: lambsquarters (Chenopodium album); assay: Test B preemergence
Summary of the method: as §1

[21] = tested on: morning glory (Ipomoea hederacea); assay: Test B preemergence
Summary of the method: as §1

[22] = tested on: pigweed (Amaranthus retroflexus); assay: Test B preemergence
Summary of the method: as §1

[23] = tested on: rice (Oryza saliva); assay: Test B preemergence
Summary of the method: as §1

[24] = tested on: velvetleaf (Abutilon theophrasti); assay: Test B preemergence
Summary of the method: as §1

[25] = tested on: smallflower flatsedge (Cyperus difformis); assay: Test C flooded paddy test; details: for Flatsedge plant response rating: Flooded Paddy, scale 0 to 100, 0 no effect, 100 complete control; for Plant response rating, Flatsedge: scale 0 to 100 (0 no effect, 100 complete control)
Summary of the method: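 Each species was cultivated to 2 leaves in flooded paddy pots, then treated. After a greenhouse period of 12–14 days, the plants were scored visually relative to controls from 0 (no effect) to 100 (complete control).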

[26] = tested on: Sunflower; assay: Test C preemergence; details: Rate 500 g/ha, visual evaluation after 12 to 14 days
[27] = tested on: Sunflower; assay: Test C preemergence; details: Rate 250 g/ha, scale 0 to 100, 0 no effect, 100 complete control
[28] = Rate 125 g/ha, scale 0 to 100, 0 no effect, 100 complete control
[29] = Rate 500 g/ha, scale 0 to 100, 0 is no effect, 100 is complete control, 13 to 15 days
[30] = Preemergence, Rate 500 g/ha, scale 0 to 100, 0 no effect, 100 complete control
[31] = preemergence, Rate 125 g/ha, scale of 0 to 100 where 0 is no effect and 100 is complete control, 13 to 15 days
[32] = flooded paddy test, Rate 125 g/ha

CCOc1cccc(N2CCC(n3ccc(C(C)C)n3)C2=O)c1 (centres unmarked) [Compound 128]
100: Plant response rating, Surinam grass [1, 29] | Plant response rating, Surinam grass [14, 30] | Plant response rating, Surinam grass [14, 31] | Plant response rating, Barnyardgrass [15, 30] | Plant response rating, Barnyardgrass [15, 31] | Plant response rating, Crabgrass [18, 30] | Plant response rating, Crabgrass [18, 31] | Plant response rating, Foxtail, Giant [19, 30] | Plant response rating, Foxtail, Giant [19, 31] | Plant response rating, Lambsquarters [20, 30] | Plant response rating, Lambsquarters [20, 31] | Plant response rating, Pigweed [22, 30] | Plant response rating, Pigweed [22, 31] | Plant response rating, Rice [23, 30] | Plant response rating, Rice [23, 31] | Flatsedge plant response rating ([25]; Rate 250 g/ha) | Flatsedge plant response rating ([25]; Rate 500 g/ha) | Plant response rating (0 to 100), Sunflower [26] | Plant response rating, Sunflower [27]
80: Plant response rating, Barnyardgrass [2, 29]
30: Plant response rating, Corn [17, 31]
70: Plant response rating, Surinam grass [1, 28] | Plant response rating, Morningglory [21, 31]
50: Plant response rating, Cocklebur [4, 29] | Plant response rating, Velvetleaf [24, 30]
0: Plant response rating, Barnyardgrass [2, 28] | Plant response rating, Blackgrass [3, 28] | Plant response rating, Blackgrass [3, 29] | Plant response rating, Cocklebur [4, 28] | Plant response rating, Corn [5, 28] | Plant response rating, Corn [5, 29] | Plant response rating, Crabgrass [6] | Plant response rating, Foxtail, Giant [7] | Plant response rating, Lambsquarters [8] | Plant response rating, Morningglory [9] | Plant response rating, Pigweed [10] | Plant response rating, Velvetleaf [11] | Plant response rating, Wheat [12] | Plant response rating, Wild Oat [13] | Plant response rating, Cocklebur [16, 31] | Plant response rating, Velvetleaf [24, 31]
90: Plant response rating, Morningglory [21, 30] | Plant response rating, Flatsedge ([25]; flooded paddy test, Rate 62 g/ha) | Plant response rating, Flatsedge [25, 32]
60: Plant response rating, Cocklebur [16, 30] | Plant response rating, Corn [17, 30]

CCCC(C)c1ccn(C2CCN(c3cccc(OCC)c3)C2=O)n1 (centres unmarked) [Compound 129]
20: Plant response rating, Corn [17, 31]
80: Plant response rating, Flatsedge [25, 32]
60: Plant response rating, Barnyardgrass [2, 29]
90: Plant response rating, Surinam grass [14, 31] | Flatsedge plant response rating ([25]; Rate 250 g/ha) | Flatsedge plant response rating ([25]; Rate 500 g/ha)
30: Plant response rating, Cocklebur [4, 29] | Plant response rating, Corn [17, 30] | Plant response rating, Rice [23, 31]
0: Plant response rating, Surinam grass [1, 28] | Plant response rating, Surinam grass [1, 29] | Plant response rating, Barnyardgrass [2, 28] | Plant response rating, Blackgrass [3, 28] | Plant response rating, Blackgrass [3, 29] | Plant response rating, Cocklebur [4, 28] | Plant response rating, Corn [5, 28] | Plant response rating, Corn [5, 29] | Plant response rating, Crabgrass [6] | Plant response rating, Foxtail, Giant [7] | Plant response rating, Morningglory [9] | Plant response rating, Pigweed [10] | Plant response rating, Velvetleaf [11] | Plant response rating, Wheat [12] | Plant response rating, Wild Oat [13] | Plant response rating, Cocklebur [16, 30] | Plant response rating, Cocklebur [16, 31] | Plant response rating, Morningglory [21, 30] | Plant response rating, Morningglory [21, 31] | Plant response rating, Velvetleaf [24, 30] | Plant response rating, Velvetleaf [24, 31]
50: Plant response rating, Rice [23, 30]
100: Plant response rating, Lambsquarters [8] | Plant response rating, Surinam grass [14, 30] | Plant response rating, Barnyardgrass [15, 30] | Plant response rating, Barnyardgrass [15, 31] | Plant response rating, Crabgrass [18, 30] | Plant response rating, Crabgrass [18, 31] | Plant response rating, Foxtail, Giant [19, 30] | Plant response rating, Foxtail, Giant [19, 31] | Plant response rating, Lambsquarters [20, 30] | Plant response rating, Lambsquarters [20, 31] | Plant response rating, Pigweed [22, 30] | Plant response rating, Pigweed [22, 31]
10: Plant response rating (0 to 100), Sunflower [26] | Plant response rating, Sunflower [27]
70: Plant response rating (scale 0 to 100), Flatsedge ([25]; flooded paddy test, Rate 62 g/ha, visually evaluated after 12 to 14 days, 0 = no effect, 100 = complete control)
